Reference: US20200239530A1, “COMPOUNDS AND METHODS OF MODULATING PROTEIN DEGRADATION” (Vividion Therapeutics, Inc., priority 2017, published 2020)
Read-outs that look alike come from different tables or passages of the source.

Legend:
Assay in all cases: Competitive cysteine profiling, probe competition (Table 2B)
Format in all cases: binding
Q86VP6 = biological target: T1, Q86VP6 (Homo sapiens, UniProt Q86VP6)
T1 construct: 200 μL of lysate containing 5 mg/ml proteome was treated with 2 μL of 100× compound stock; endogenous in cells
T1 sequence (Q86VP6 1-1230): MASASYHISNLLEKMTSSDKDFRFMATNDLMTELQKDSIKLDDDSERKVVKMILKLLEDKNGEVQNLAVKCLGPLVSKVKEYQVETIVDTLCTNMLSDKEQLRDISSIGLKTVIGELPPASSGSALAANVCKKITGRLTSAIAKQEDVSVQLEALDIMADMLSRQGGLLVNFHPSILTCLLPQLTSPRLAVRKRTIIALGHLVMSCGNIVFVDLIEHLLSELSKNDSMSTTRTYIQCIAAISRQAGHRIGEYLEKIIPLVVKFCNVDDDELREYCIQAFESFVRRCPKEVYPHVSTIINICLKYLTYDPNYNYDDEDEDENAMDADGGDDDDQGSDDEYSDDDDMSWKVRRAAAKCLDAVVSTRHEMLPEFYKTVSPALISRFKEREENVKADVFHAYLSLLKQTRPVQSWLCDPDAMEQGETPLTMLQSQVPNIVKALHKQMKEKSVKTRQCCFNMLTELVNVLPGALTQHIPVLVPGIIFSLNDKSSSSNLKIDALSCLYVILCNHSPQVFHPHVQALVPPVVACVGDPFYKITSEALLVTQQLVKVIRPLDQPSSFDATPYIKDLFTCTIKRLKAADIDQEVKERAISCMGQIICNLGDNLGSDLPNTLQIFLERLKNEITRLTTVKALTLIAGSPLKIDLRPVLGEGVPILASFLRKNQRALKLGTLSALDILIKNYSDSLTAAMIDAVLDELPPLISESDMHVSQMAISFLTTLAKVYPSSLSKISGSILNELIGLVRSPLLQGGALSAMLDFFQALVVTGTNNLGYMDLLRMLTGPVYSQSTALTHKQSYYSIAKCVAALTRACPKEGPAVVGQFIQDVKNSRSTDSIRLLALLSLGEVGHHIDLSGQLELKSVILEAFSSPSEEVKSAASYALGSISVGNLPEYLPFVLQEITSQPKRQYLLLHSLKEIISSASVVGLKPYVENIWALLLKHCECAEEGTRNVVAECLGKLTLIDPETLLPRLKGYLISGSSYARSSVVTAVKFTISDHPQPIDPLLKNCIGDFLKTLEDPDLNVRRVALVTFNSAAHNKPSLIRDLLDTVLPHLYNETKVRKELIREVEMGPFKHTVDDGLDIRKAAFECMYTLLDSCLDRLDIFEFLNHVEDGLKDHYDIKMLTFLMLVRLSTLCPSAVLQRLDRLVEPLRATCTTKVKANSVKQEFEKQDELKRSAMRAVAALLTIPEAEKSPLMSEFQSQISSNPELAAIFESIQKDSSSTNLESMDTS
Source text: (§1) The following 96-well sample prep protocol was used for sample preparation.

Q92624 = biological target: T2, Q92624 (Homo sapiens, UniProt Q92624)
T2 construct: Cells were resuspended in cold PBS on ice and sonicated with a probe sonicator to achieve lysis; endogenous in cells
T2 sequence (Q92624 1-585): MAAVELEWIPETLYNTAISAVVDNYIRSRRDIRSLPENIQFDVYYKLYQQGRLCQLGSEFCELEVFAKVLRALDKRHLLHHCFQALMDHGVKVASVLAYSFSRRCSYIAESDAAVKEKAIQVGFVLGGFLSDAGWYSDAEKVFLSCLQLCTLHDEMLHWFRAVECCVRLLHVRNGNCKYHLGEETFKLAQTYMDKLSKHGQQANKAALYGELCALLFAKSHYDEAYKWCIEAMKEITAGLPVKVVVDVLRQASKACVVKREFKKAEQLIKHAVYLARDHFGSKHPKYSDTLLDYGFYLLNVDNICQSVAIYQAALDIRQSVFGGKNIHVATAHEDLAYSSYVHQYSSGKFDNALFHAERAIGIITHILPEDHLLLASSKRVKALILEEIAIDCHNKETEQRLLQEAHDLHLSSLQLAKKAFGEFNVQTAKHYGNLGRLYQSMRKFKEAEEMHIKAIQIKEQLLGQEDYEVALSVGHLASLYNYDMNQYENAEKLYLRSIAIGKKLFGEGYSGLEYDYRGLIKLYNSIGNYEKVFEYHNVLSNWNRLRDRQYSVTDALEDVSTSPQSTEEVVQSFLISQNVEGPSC
Source text: as §1

Q96DX5 = biological target: T3, Q96DX5 (Homo sapiens, UniProt Q96DX5)
T3 construct: 200 μL of lysate containing 5 mg/ml proteome was treated with 2 μL of 100× compound stock; endogenous in cells
T3 sequence (Q96DX5 1-294): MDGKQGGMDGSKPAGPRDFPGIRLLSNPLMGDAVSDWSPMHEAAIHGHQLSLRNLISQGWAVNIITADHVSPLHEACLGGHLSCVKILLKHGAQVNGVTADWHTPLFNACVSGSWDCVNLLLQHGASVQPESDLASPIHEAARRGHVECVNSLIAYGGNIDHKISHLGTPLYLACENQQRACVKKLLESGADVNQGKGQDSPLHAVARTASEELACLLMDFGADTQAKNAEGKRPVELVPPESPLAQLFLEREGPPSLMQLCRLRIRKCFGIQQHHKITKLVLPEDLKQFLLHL
Source text: as §1

Q9UJX5 = biological target: T4, Q9UJX5 (Homo sapiens, UniProt Q9UJX5)
T4 construct: Cells were resuspended in cold PBS on ice and sonicated with a probe sonicator to achieve lysis; endogenous in cells
Source text: as §1

[1] = read-out: KB02_100 uM_percent_inhibition
[2] = 500 uM, read-out: KB02_500 uM_percent_inhibition
[3] = read-out: KB05_100 uM_percent_inhibition
[4] = 100 uM, read-out: KB05_100 uM_percent_inhibition

T4 sequence (Q9UJX5 whole entry): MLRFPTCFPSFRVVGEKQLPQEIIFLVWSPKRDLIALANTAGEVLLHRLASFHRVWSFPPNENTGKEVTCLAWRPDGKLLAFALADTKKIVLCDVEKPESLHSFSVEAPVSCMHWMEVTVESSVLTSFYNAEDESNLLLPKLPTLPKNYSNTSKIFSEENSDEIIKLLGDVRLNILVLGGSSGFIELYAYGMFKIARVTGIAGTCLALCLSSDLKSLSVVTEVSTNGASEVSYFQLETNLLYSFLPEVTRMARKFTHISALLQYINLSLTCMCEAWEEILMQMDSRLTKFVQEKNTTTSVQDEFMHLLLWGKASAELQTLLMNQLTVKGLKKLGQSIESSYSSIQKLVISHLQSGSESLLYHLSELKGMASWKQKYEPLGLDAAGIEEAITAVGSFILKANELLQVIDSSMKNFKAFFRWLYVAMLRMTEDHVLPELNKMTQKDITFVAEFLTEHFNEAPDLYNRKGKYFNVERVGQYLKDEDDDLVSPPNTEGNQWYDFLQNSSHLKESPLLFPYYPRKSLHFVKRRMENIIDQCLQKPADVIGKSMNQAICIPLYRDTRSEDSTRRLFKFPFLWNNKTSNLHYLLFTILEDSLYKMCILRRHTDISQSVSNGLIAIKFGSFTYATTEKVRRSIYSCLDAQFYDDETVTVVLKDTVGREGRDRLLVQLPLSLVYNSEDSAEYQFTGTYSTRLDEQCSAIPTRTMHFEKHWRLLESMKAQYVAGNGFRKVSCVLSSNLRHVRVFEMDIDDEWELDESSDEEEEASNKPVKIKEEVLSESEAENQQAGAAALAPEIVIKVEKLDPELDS

Structure (SMILES): COc1ccc2c(c1)CCCN2C(=O)CCl [KB02]
- KB02_100 uM_percent_inhibition (Q86VP6; 100 uM): 27%
- inhibition at 100 µM (Q86VP6; [1]): 47%
- inhibition at 500 µM (Q92624; [2]): 100%
- inhibition at 100 µM (Q96DX5; [1]): 30%
- inhibition at 500 µM (Q9UJX5; [2]): 7%

Structure (SMILES): C=CC(=O)N(c1ccccc1)c1ccc(Br)cc1 [KB05]
- KB05_100 uM_percent_inhibition (Q86VP6; 100 uM): 7%
- inhibition at 100 µM (Q86VP6; [3]): 4%
- inhibition at 100 µM (Q92624; [4]): 34%
- inhibition at 100 µM (Q96DX5; [3]): 12%
- inhibition at 100 µM (Q9UJX5; [4]): 6%
- inhibition at 500 µM (Q9UJX5; 500 uM, read-out: KB05_500 uM_percent_inhibition): 20%

Structure (SMILES): O=C(CCl)Nc1cc(C(F)(F)F)cc(C(F)(F)F)c1 [KBO3]
- KB03_100 uM_percent_inhibition (Q86VP6; 100 uM): 46%
- KB03_100 uM_percent_inhibition (Q92624; 100 uM): 56%
- KB03_100 uM_percent_inhibition (Q96DX5; 100 uM): 33%
- KB03_500 uM_percent_inhibition (Q9UJX5; 500 uM): 29%
